Test results as given in PMC8880132 (Molecules, 2022).
Like-named read-outs stand apart in the source and are kept apart here. Blank lines part the entries; values can stand above or below the compound they belong to.

Legend:
[1] = Stability of LEN and TEL in rat plasma under various storage conditions; type: in vitro ADME; conditions: for Stability, measured concentration Mean ± SD / Stability, Accuracy (RE%) vs nominal concentration: rat plasma; for Stability, measured concentration Mean ± SD: n = 6
Description: QC samples with six replicates of each concentration were used to assess the stability of the samples under different processing and storage conditions. […] The long-term stability was carried out by freezing at −80 °C for 30 days, and the freeze–thaw stability was verified by repeatedly freezing and thawing three times.

[2] = Pharmacokinetic drug-drug interaction study in rats after oral administration; type: in vivo, SD (Sprague-Dawley) rats; conditions: for Cmax / Tmax / half-life / AUC(0-inf) / AUC(0-t): male, Sprague-Dawley, rat, plasma, po; for Cmax / Tmax / half-life / AUC(0-inf) / AUC(0-t) / CLz / Vz: rat plasma; for Tmax: median (range); for half-life: read-out: t1/2z (converted)
Description: SPF (specific pathogen free)-grade male SD (Sprague-Dawley) rats (weight: 230 ± 10 g) were purchased from Beijing Weitong Lihua Experimental Animal Technology Co. Ltd. (Beijing, China). Before starting the experiment, the rats were given sufficient food and water and kept under suitable conditions for one week. Suitable conditions included suitable temperature (23–27 °C), suitable humidity (50 ± 10%), and 12-h light–12-h dark diurnal cycle. All animals were fasted for 12 h before the start of the experiment, but they were allowed to drink water freely. All the animal experimental protocols were conducted in accordance with the UK Animals (Scientific Procedures) Act 1986 and under the guideline approved by the Ethics Committee of Hebei General Hospital (Shijiazhuang, China; No. 2021131).
Twenty-four healthy rats were randomly and equally divided into four groups (six animals in each group). […] Approximately 0.3 mL of blood was collected from the orbital venous plexus in a heparinized centrifuge tube from each rat at 0.25, 0.5, 1, 2, 3, 4, 6, 8, 10, 12, 24, 48, 72, and 96 h after administration. […] The blood samples were collected from each rat at 0.17, 0.33, 0.5, 0.75, 1, 2, 3, 4, 6, 8, 10, 12, 24, 48, and 72 h after administration. Blood samples were centrifuged at 3500 rpm for 10 min, and the plasma samples (supernatant) were harvested and stored at −80 °C.
The main pharmacokinetic parameters are presented as mean ± standard deviation and statistically analyzed using SPSS 25.0 software package (SPSS Inc., Chicago, IL, USA). A p-value of <0.05 was considered statistically significant.

[3] = test system: breast cancer resistance protein (BCRP); conditions: cited from earlier work
P-glycoprotein (P-gp) = conditions: cited from earlier work
[4] = cited from earlier work
[5] = test system: multidrug resistance-associated protein 2 (MRP2); conditions: in vitro studies; cited from earlier work
[6] = cited from earlier work; remark: listed apart in the source
[7] = autosampler for 24 h, high QC (800 ng/mL LEN, 400 ng/mL TEL)
[8] = autosampler for 24 h, low QC (0.5 ng/mL LEN, 0.25 ng/mL TEL)
[9] = freeze–thaw three times, high QC (800 ng/mL LEN, 400 ng/mL TEL)
[10] = freeze–thaw three times, low QC (0.5 ng/mL LEN, 0.25 ng/mL TEL)
[11] = freeze–thaw three times, medium QC (150 ng/mL LEN, 75 ng/mL TEL)
[12] = room temperature for 8 h, high QC (800 ng/mL LEN, 400 ng/mL TEL)
[13] = room temperature for 8 h, low QC (0.5 ng/mL LEN, 0.25 ng/mL TEL)
[14] = room temperature for 8 h, medium QC (150 ng/mL LEN, 75 ng/mL TEL)
[15] = −80 °C for 30 days, high QC (800 ng/mL LEN, 400 ng/mL TEL)
[16] = −80 °C for 30 days, low QC (0.5 ng/mL LEN, 0.25 ng/mL TEL)
[17] = −80 °C for 30 days, medium QC (150 ng/mL LEN, 75 ng/mL TEL)
[18] = 1.2 mg/kg, LEN 1.2 mg/kg oral, alone
[19] = 1.2 mg/kg, LEN 1.2 mg/kg oral, with TEL (4 mg/kg)
[20] = LEN 1.2 mg/kg oral, with TEL (4 mg/kg)
[21] = autosampler for 24 h, medium QC (150 ng/mL LEN, 75 ng/mL TEL)
[22] = TEL 4 mg/kg with LEN 1.2 mg/kg vs TEL alone, rats, oral
[23] = 4 mg/kg, TEL 4 mg/kg oral, alone
[24] = 4 mg/kg, TEL 4 mg/kg oral, with LEN (1.2 mg/kg)

Stability, measured concentration Mean ± SD [1, 7]: 835.67 ± 34.60 ng/mL | Stability, measured concentration Mean ± SD [1, 8]: 0.48 ± 0.03 ng/mL | Stability, measured concentration Mean ± SD [1, 9]: 787.50 ± 40.13 ng/mL | Stability, measured concentration Mean ± SD [1, 10]: 0.48 ± 0.05 ng/mL | Stability, measured concentration Mean ± SD [1, 11]: 150.17 ± 14.85 ng/mL | Stability, measured concentration Mean ± SD [1, 12]: 751.50 ± 19.74 ng/mL | Stability, measured concentration Mean ± SD [1, 13]: 0.52 ± 0.03 ng/mL | Stability, measured concentration Mean ± SD [1, 14]: 149.33 ± 11.15 ng/mL | Stability, measured concentration Mean ± SD [1, 15]: 808.00 ± 59.16 ng/mL | Stability, measured concentration Mean ± SD [1, 16]: 0.53 ± 0.05 ng/mL | Stability, measured concentration Mean ± SD [1, 17]: 154.00 ± 4.77 ng/mL | Cmax [2, 18]: 498 ± 107 ng/mL | Tmax [2, 18]: 2.5 h | half-life [2, 18]: 8.75 ± 2.55 h | AUC(0-inf) [2, 19]: 5860 ± 1350 ng·h/mL | AUC(0-t) [2, 19]: 5860 ± 1350 ng·h/mL | Cmax [2, 19]: 644 ± 211 ng/mL | half-life [2, 19]: 9.32 ± 4.69 h | CLz ([2]; LEN 1.2 mg/kg oral, alone): 3.5 ± 0.33 mL/min/kg | Vz ([2]; LEN 1.2 mg/kg oral, alone): 2.69 ± 0.79 L/kg | CLz [2, 20]: 3.67 ± 0.83 mL/min/kg | Vz [2, 20]: 2.92 ± 1.60 L/kg
Compound: COc1cc2nccc(Oc3ccc(NC(=O)NC4CC4)c(Cl)c3)c2cc1C(N)=O [LEN, Lenvatinib]
BCRP interaction [3]: substrate | P-gp interaction (P-glycoprotein (P-gp)): substrate | water solubility [4]: poor water solubility

Compound: CCCc1nc2c(C)cc(-c3nc4ccccc4n3C)cc2n1Cc1ccc(-c2ccccc2C(=O)O)cc1 [TEL, Telmisartan]
Stability, Accuracy (RE%) vs nominal concentration [1, 7]: −0.38% | Stability, measured concentration Mean ± SD [1, 7]: 398.50 ± 22.76 ng/mL | Stability, Accuracy (RE%) vs nominal concentration [1, 8]: −4.33% | Stability, measured concentration Mean ± SD [1, 8]: 0.24 ± 0.02 ng/mL | Stability, Accuracy (RE%) vs nominal concentration [1, 21]: −1.76% | Stability, measured concentration Mean ± SD [1, 21]: 73.68 ± 1.59 ng/mL | Stability, Accuracy (RE%) vs nominal concentration [1, 9]: −2.17% | Stability, measured concentration Mean ± SD [1, 9]: 391.33 ± 25.73 ng/mL | Stability, Accuracy (RE%) vs nominal concentration [1, 10]: −0.47% | Stability, measured concentration Mean ± SD [1, 10]: 0.25 ± 0.01 ng/mL | Stability, Accuracy (RE%) vs nominal concentration [1, 11]: −3.53% | Stability, measured concentration Mean ± SD [1, 11]: 72.35 ± 2.51 ng/mL | Stability, Accuracy (RE%) vs nominal concentration [1, 12]: −7.58% | Stability, measured concentration Mean ± SD [1, 12]: 369.67 ± 6.98 ng/mL | Stability, Accuracy (RE%) vs nominal concentration [1, 13]: −3.53% | Stability, measured concentration Mean ± SD [1, 13]: 0.24 ± 0.01 ng/mL | Stability, Accuracy (RE%) vs nominal concentration [1, 14]: −2.36% | Stability, measured concentration Mean ± SD [1, 14]: 73.23 ± 5.40 ng/mL | Stability, Accuracy (RE%) vs nominal concentration [1, 15]: 0.38% | Stability, measured concentration Mean ± SD [1, 15]: 401.50 ± 27.46 ng/mL | Stability, Accuracy (RE%) vs nominal concentration [1, 16]: 1.80% | Stability, measured concentration Mean ± SD [1, 16]: 0.25 ± 0.01 ng/mL | Stability, Accuracy (RE%) vs nominal concentration [1, 17]: −0.36% | Stability, measured concentration Mean ± SD [1, 17]: 74.73 ± 1.64 ng/mL | stability of plasma samples ([1]; room temperature 8 h, autosampler 24 h after processing, −80 °C 30 days, freezing and thawing three times): stable | MRP2 interaction [5]: substrate and inhibitor | AUC0–72h reduced by [2, 22]: 44.9% | AUC0–∞ reduced by [2, 22]: 41.3% | Cmax reduced by [2, 22]: 42.2% | Vz higher by [2, 22]: 97.1% | increase in CL [2, 22]: 69% | AUC(0-inf) [2, 23]: 4180 ± 1040 ng·h/mL | AUC(0-t) [2, 23]: 4150 ± 1040 ng·h/mL | Cmax [2, 23]: 171 ± 38 ng/mL | Tmax [2, 23]: 8 h | half-life [2, 23]: 9.36 ± 2.09 h | AUC(0-inf) [2, 24]: 2460 ± 544 ng·h/mL | AUC(0-t) [2, 24]: 2280 ± 322 ng·h/mL | Cmax [2, 24]: 99 ± 19.3 ng/mL | Tmax [2, 24]: 11 h | half-life [2, 24]: 12.4 ± 12.7 h | CLz ([2]; TEL 4 mg/kg oral, alone): 16.7 ± 3.5 mL/min/kg | CLz ([2]; TEL 4 mg/kg oral, with LEN (1.2 mg/kg)): 28.2 ± 5.83 mL/min/kg | half-life [6]: 24 h | BCRP interaction ([3]; in vitro studies): substrate and inhibitor | P-gp interaction (P-glycoprotein (P-gp); in vitro studies): substrate and inhibitor | water solubility ([4]; solubility is related to PH): poorly water-soluble
